Reference: ChEMBL document CHEMBL4414677, “Albanitriles A-G: Antiprotozoal Polyacetylene Nitriles from a Mycale Marine Sponge” (J Nat Prod, 2019)
Values after ≈ are worked out from the molar mass of the structure shown.

system: Bacillus spizizenii; assay: Antibacterial activity against Bacillus subtilis ATCC 6633 assessed as bacterial growth inhibition measured after 48 hrs by resazurin assay; type: functional; conditions: ATCC 6633, 48 h

| Compound | MIC |
| --- | --- |
| CN(C)[C@@H]1C(O)=C(C(N)=O)C(=O)[C@@]2(O)C(O)=C3C(=O)c4c(O)cccc4[C@@](C)(O)[C@H]3C[C@@H]12 [TETRACYCLINE] | 0.9 µM (≈ 0.4 µg/mL) |
| N#CCCCCC#CC#CC#CCCCCCC#N | > 400 µM |
| N#CCCCCC#CC#CC#CCCCCCCC#N | 400 µM (≈ 106 µg/mL) |
| N#CCCCCC#CC#CC#CCCCCCC=O | 400 µM (≈ 101 µg/mL) |
| N#CCCCCC#CC#CC#CCCCCCC(O)C#N (stereo not given) | 90 µM (≈ 25.2 µg/mL) |

system: Candida albicans; assay: Antifungal activity against Candida albicans ATCC 10231 assessed as fungal growth inhibition measured after 48 hrs by bromocresol green dye based assay; type: functional; conditions: not given

| Compound | MIC |
| --- | --- |
| NYSTATIN | 1.7 µM |

same assay, conditions: ATCC 10231, 48 h

| Compound | MIC |
| --- | --- |
| N#CCCCCC#CC#CC#CCCCCCC#N | > 400 µM |
| N#CCCCCC#CC#CC#CCCCCCCC#N | > 400 µM |
| N#CCCCCC#CC#CC#CCCCCCC=O | > 400 µM |
| N#CCCCCC#CC#CC#CCCCCCC(O)C#N (stereo not given) | > 360 µM |

system: Giardia intestinalis; assay: Antiprotozoal activity against Giardia duodenalis 713 assessed as protozoal growth inhibition measured after 96 hrs under anaerobic conditions; type: functional; conditions: Giardia duodenalis, 713, 96 h

| Compound | MIC |
| --- | --- |
| N#CCCCCC#CC#CC#CCCCCCC#N | 25 µM (≈ 6.26 µg/mL) |
| N#CCCCCC#CC#CC#CCCCCCCC#N | 12 µM (≈ 3.17 µg/mL) |
| Cc1ncc([N+](=O)[O-])n1CCO [METRONIDAZOLE] | 2.9 µM (≈ 0.496 µg/mL) |
| N#CCCCCC#CC#CC#CCCCCCC=O | 400 µM (≈ 101 µg/mL) |
| N#CCCCCC#CC#CC#CCCCCCC(O)C#N (stereo not given) | 90 µM (≈ 25.2 µg/mL) |

system: not listed separately; assay: Cytotoxicity against human NFF cells assessed as cell growth inhibition measured after 96 hrs by resazurin assay; type: cell-based; conditions: read-out: MIC

| Compound | MCC at 96 h |
| --- | --- |
| N#CCCCCC#CC#CC#CCCCCCC#N | 100 µM |
| N#CCCCCC#CC#CC#CCCCCCCC#N | 100 µM |
| N#CCCCCC#CC#CC#CCCCCCC=O | 50 µM |
| N#CCCCCC#CC#CC#CCCCCCC(O)C#N (stereo not given) | 90 µM |
| CSC[S@+]([O-])C[C@H](CO)NC(=O)/C=C/c1c(C)[nH]c(=O)[nH]c1=O | 1.7 µM |

system: Escherichia coli; assay: Antibacterial activity against Escherichia coli ATCC 25922 assessed as bacterial growth inhibition measured after 48 hrs by resazurin assay; type: functional; conditions: ATCC 25922, 48 h

| Compound | MIC |
| --- | --- |
| CN(C)[C@@H]1C(O)=C(C(N)=O)C(=O)[C@@]2(O)C(O)=C3C(=O)c4c(O)cccc4[C@@](C)(O)[C@H]3C[C@@H]12 [TETRACYCLINE] | 14 µM (≈ 6.22 µg/mL) |
| N#CCCCCC#CC#CC#CCCCCCC#N | > 400 µM |
| N#CCCCCC#CC#CC#CCCCCCCC#N | > 400 µM |
| N#CCCCCC#CC#CC#CCCCCCC=O | > 400 µM |
| N#CCCCCC#CC#CC#CCCCCCC(O)C#N (stereo not given) | > 360 µM |

system: Tritrichomonas foetus; assay: Antiprotozoal activity against Tritrichomonas foetus KV1 assessed as protozoal growth inhibition measured after 72 hrs under anaerobic conditions; type: functional; conditions: KV1, 72 h

| Compound | MIC |
| --- | --- |
| N#CCCCCC#CC#CC#CCCCCCC#N | 200 µM (≈ 50.1 µg/mL) |
| N#CCCCCC#CC#CC#CCCCCCCC#N | 190 µM (≈ 50.2 µg/mL) |
| Cc1ncc([N+](=O)[O-])n1CCO [METRONIDAZOLE] | 1.2 µM (≈ 0.205 µg/mL) |
| N#CCCCCC#CC#CC#CCCCCCC=O | 200 µM (≈ 50.7 µg/mL) |
| N#CCCCCC#CC#CC#CCCCCCC(O)C#N (stereo not given) | > 360 µM |

system: not listed separately; assay: Cytotoxicity against mouse NS1 cells assessed as cell growth inhibition measured after 96 hrs by resazurin assay; type: cell-based; conditions: read-out: MIC

| Compound | MCC at 96 h |
| --- | --- |
| N#CCCCCC#CC#CC#CCCCCCC#N | 50 µM |
| N#CCCCCC#CC#CC#CCCCCCCC#N | 50 µM |
| N#CCCCCC#CC#CC#CCCCCCC=O | 100 µM |
| N#CCCCCC#CC#CC#CCCCCCC(O)C#N (stereo not given) | 180 µM |
| CSC[S@+]([O-])C[C@H](CO)NC(=O)/C=C/c1c(C)[nH]c(=O)[nH]c1=O | 0.55 µM |
